Values of other authors in patent US6605646B2, “Vitamin supplement composition” (Upsher-Smith Laboratories, Inc., priority 1995, dated 2003).

Conditions: grain fortification, elderly adults

For Nc1nc2ncc(CNc3ccc(C(=O)N[C@@H](CCC(=O)O)C(=O)O)cc3)nc2c(=O)[nH]1 [folic acid, pteroylglutamic acid], which serum folate is on record?
The serum folate was “increased serum folate”.

What about the serum homocysteine of the same compound?
Its serum homocysteine is “decreased serum homocysteine”.
